Data on five compounds can be found in patent US20060074129A1, “Method for obtaining ozonized oils and vegetable fats and use of said products for pharmaceutical and cosmetic purposes” (priority 2002, published 2006).

In test [1] the test system is moderate simple periodontitis. Description: Random, controlled, single-blind phase III clinical trial in moderate simple periodontitis. Type of test: in vivo, human. The procedure: In this study, we used ozonized sunflower oil in order to evaluate their effect on the treatment of moderate simple periodontitis and for preventing its recidivation. A random, controlled and single-blind phase III clinical trial was performed in 84 patients, older than 35 years, from both sexes. Ozonized sunflower oil was topically applied to 42 patients on the operated area and on the 7th, 14th and 21st days after operation on the adjacent periodontal tissues. The control group was formed by 42 patients that received the conventional treatment with chlorhexidine (aqueous solution 0.2%). An analytic index of hygiene, clinical and radiographical tests and microbiological controls was applied to the patients, at the beginning, on the 21st , 90th and 180th days and with intervals of 1 month until 9 months after operation. The effectiveness of the treatment after 180 days was considered as: good (satisfactory clinical and microbiological assessments) in 98% of the patients of the group treated with ozonized sunflower oil and in 78% of the control group; fairly good (some of the assessments were not satisfactory) for 2 and 17%, respectively, and in the category of bad (both assessments were not satisfactory) only 5% appears in the control group. Recidivation was more frequent in the control group (15%) than in the group treated with ozonized sunflower oil (5%). In general, the best clinical results (best evolution and healing during the study) and microbiological results were obtained in the group treated with ozonized sunflower oil, and also a lower percent of recidivation was found in that group.

The next test relates to blepharitis. As to the kind of experiment: Clinical study in blepharitis with acute bacterial infection. Type of test: in vivo, human. Particulars: topical on eyelid border, 7 days. The procedure: The sample was constituted by 40 patients suffering from blepharitis, with acute bacterial infection. Twenty patients were treated with topical ozonized sunflower oil, three times a day, by rubbing the border of the eyelid with an applicator soaked with ozonized sunflower oil, during 7 days. The 20 other patients were treated in the same way with gentamycin ointment (0.3%), 4 times a day for 7 days. Healing of 95 and 88% was obtained with ozonized sunflower oil and gentamycin, respectively, with significant differences between both groups.

The subject of test [2] is acute ulcer-necrotizing gingivitis. As to the kind of experiment: Random phase III clinical assay in acute ulcer-necrotizing gingivitis. The format is in vivo, human. The following applies: three times a day for 7 days. The procedure:
A random phase III clinical assay was performed in a group of 48 patients suffering from acute ulcer-necrotizing gingivitis. From those patients, 24 formed the group with ozonized sunflower oil, by topical applications on the lesions, three times a day, for 7 days. The control group (24 patients) was treated with local applications of aqueous solution of sodium perborate, as rinsings, with similar periodicity to that of the group treated with ozonized sunflower oil. The tests were performed 3 or 7 days after the beginning of the treatments.

Another test deals with Candida albicans. Description: Clinical study in vulvovaginal candidiasis. The following applies: for healing: final vaginal exudate, six days after the last ovule; for time at which symptoms and signs disappeared in a higher percent: in vivo. Type of test: in vivo. The procedure:
Ninety women, 17 to 51 years old, with diagnosis of vulvovaginal candidiasis were studied. Patients were allocated at random in three groups: 30 were treated with ovules containing 10% ozonized theobroma oil, 30 were treated with Nistatine and 30 with Clotrimazole. To all patients, a vaginal exudate was performed at the beginning and at the end of the treatment, six days after the application of the last ovule. Also, an interrogation and a physical test were performed to them. The clinical symptoms of those patients were pruritus, burning and leucorrhea with higher prevalence. […] Taking into account the final exudate, a healing of 97% was obtained for the patients treated with ozonized theobroma oil ovules, 80% for the group treated with Clotrimazole and 50% for the patients treated with Nistatine.

In the case of `[H]/N=C(\N/C(=N/[H])NCCCCCCNC(=N)NC(=N)Nc1ccc(Cl)cc1)Nc1ccc(Cl)cc1` [chlorhexidine], in test [1] (after 180 days, both assessments not satisfactory), the “effectiveness of the treatment considered bad” value is 5%. In test [1] (after 180 days, satisfactory clinical and microbiological assessments), the “effectiveness of the treatment considered good” value is 78%. Besides, the “effectiveness of the treatment considered fairly good” value in test [1] (after 180 days, some of the assessments not satisfactory) is 17%. Besides, the recidivation in test [1] (human, in vivo) is reported as 15%.
On to gentamycin, for which the healing with blepharitis amounted to 88%.
In test [2], sodium perborate returned a patients healed of 29.2%.
Turning to Nistatine, in the test with Candida albicans, the healing is given as 50%; the “time at which symptoms and signs disappeared in a higher percent” value was “between the ninth and twelfth days”.
As to `Clc1ccccc1C(c1ccccc1)(c1ccccc1)n1ccnc1` [Clotrimazole], in the test on Candida albicans, the healing is given as 80%; the “time at which symptoms and signs disappeared in a higher percent” value was “between the first and the fourth days of treatment”.
